Assay results: PubChem BioAssay (NCI)
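Each compound was tested at five concentrations against cells in 96-well plates for 48 hours. TGI marks complete inhibition of growth.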

Experiments:
Assay in all cases: NCI tumour cell line growth inhibition, 48 h
DMS 273 small cell lung = tested on: DMS 273 small cell lung
CCRF-CEM leukemia = tested on: CCRF-CEM leukemia
SNB-78 CNS = tested on: SNB-78 CNS
SF-539 CNS = tested on: SF-539 CNS
SF-268 CNS = tested on: SF-268 CNS
HL-60(TB) leukemia = tested on: HL-60(TB) leukemia
LOX IMVI melanoma = tested on: LOX IMVI melanoma
RXF 393 renal = tested on: RXF 393 renal
OVCAR-4 ovarian = tested on: OVCAR-4 ovarian
HCT-116 colon = tested on: HCT-116 colon
UACC-62 melanoma = tested on: UACC-62 melanoma
SW-620 colon = tested on: SW-620 colon
NCI-H522 lung = tested on: NCI-H522 lung
M19-MEL melanoma = tested on: M19-MEL melanoma
SNB-19 CNS = tested on: SNB-19 CNS
OVCAR-8 ovarian = tested on: OVCAR-8 ovarian
UO-31 renal = tested on: UO-31 renal
OVCAR-3 ovarian = tested on: OVCAR-3 ovarian
OVCAR-5 ovarian = tested on: OVCAR-5 ovarian
XF 498 CNS = tested on: XF 498 CNS
COLO 205 colon = tested on: COLO 205 colon
KM20L2 colon = tested on: KM20L2 colon
EKVX NSCLC = tested on: EKVX NSCLC
NCI-H23 lung = tested on: NCI-H23 lung
SNB-75 CNS = tested on: SNB-75 CNS
NCI-H226 lung = tested on: NCI-H226 lung
P388/ADR leukemia = tested on: P388/ADR leukemia
SK-MEL-2 melanoma = tested on: SK-MEL-2 melanoma
P388 leukemia = tested on: P388 leukemia
K-562 leukemia = tested on: K-562 leukemia
HCT-15 colon = tested on: HCT-15 colon
A498 renal = tested on: A498 renal
UACC-257 melanoma = tested on: UACC-257 melanoma
SN12C renal = tested on: SN12C renal
IGROV1 ovarian = tested on: IGROV1 ovarian
U251 CNS = tested on: U251 CNS
SN12K1 renal = tested on: SN12K1 renal
CAKI-1 renal = tested on: CAKI-1 renal
HT29 colon = tested on: HT29 colon
DMS 114 small cell lung = tested on: DMS 114 small cell lung
RPMI-8226 leukemia = tested on: RPMI-8226 leukemia
MALME-3M melanoma = tested on: MALME-3M melanoma
NCI-H460 lung = tested on: NCI-H460 lung
HOP-92 NSCLC = tested on: HOP-92 NSCLC
HCC-2998 colon = tested on: HCC-2998 colon
SF-295 CNS = tested on: SF-295 CNS
SK-OV-3 ovarian = tested on: SK-OV-3 ovarian
NCI/ADR-RES ovarian = tested on: NCI/ADR-RES ovarian
MOLT-4 leukemia = tested on: MOLT-4 leukemia
SK-MEL-28 melanoma = tested on: SK-MEL-28 melanoma
SK-MEL-5 melanoma = tested on: SK-MEL-5 melanoma
MCF7 breast = tested on: MCF7 breast
HOP-18 NSCLC = tested on: HOP-18 NSCLC
DLD-1 colon = tested on: DLD-1 colon
KM12 colon = tested on: KM12 colon
HOP-62 NSCLC = tested on: HOP-62 NSCLC
A549 NSCLC = tested on: A549 NSCLC

O=Cc1c(Cn2ccnc2)c2cc([N+](=O)[O-])ccc2n1Cc1ccccc1
TGI (DMS 273 small cell lung): > 100 µM
TGI (CCRF-CEM leukemia): > 100 µM
TGI (SNB-78 CNS): > 100 µM
TGI (SF-539 CNS): > 100 µM
TGI (SF-268 CNS): > 100 µM
TGI (HL-60(TB) leukemia): > 41.9 µM
TGI (LOX IMVI melanoma): > 100 µM
TGI (RXF 393 renal): > 100 µM
TGI (OVCAR-4 ovarian): > 100 µM
TGI (HCT-116 colon): > 100 µM
TGI (UACC-62 melanoma): > 100 µM
TGI (SW-620 colon): > 100 µM
TGI (NCI-H522 lung): > 100 µM
TGI (M19-MEL melanoma): > 100 µM
TGI (SNB-19 CNS): > 100 µM
TGI (OVCAR-8 ovarian): > 100 µM
TGI (UO-31 renal): > 100 µM
TGI (OVCAR-3 ovarian): > 100 µM
TGI (OVCAR-5 ovarian): > 100 µM
TGI (XF 498 CNS): > 100 µM
TGI (COLO 205 colon): > 100 µM
TGI (KM20L2 colon): > 100 µM
TGI (EKVX NSCLC): > 100 µM
TGI (NCI-H23 lung): > 100 µM
TGI (SNB-75 CNS): > 100 µM
TGI (NCI-H226 lung): > 100 µM
TGI (P388/ADR leukemia): > 100 µM
TGI (SK-MEL-2 melanoma): > 100 µM
TGI (P388 leukemia): > 100 µM
TGI (K-562 leukemia): > 100 µM
TGI (HCT-15 colon): > 100 µM
TGI (A498 renal): > 100 µM
TGI (UACC-257 melanoma): > 100 µM
TGI (SN12C renal): > 100 µM
TGI (IGROV1 ovarian): > 100 µM
TGI (U251 CNS): > 100 µM
TGI (SN12K1 renal): > 100 µM
TGI (CAKI-1 renal): 97.3 µM
TGI (HT29 colon): > 100 µM
TGI (DMS 114 small cell lung): > 100 µM
TGI (RPMI-8226 leukemia): > 100 µM
TGI (MALME-3M melanoma): > 100 µM
TGI (NCI-H460 lung): > 100 µM
TGI (HOP-92 NSCLC): > 100 µM
TGI (HCC-2998 colon): > 100 µM
TGI (SF-295 CNS): > 92.3 µM
TGI (SK-OV-3 ovarian): > 100 µM
TGI (NCI/ADR-RES ovarian): > 100 µM
TGI (MOLT-4 leukemia): > 100 µM
TGI (SK-MEL-28 melanoma): > 100 µM
TGI (SK-MEL-5 melanoma): > 100 µM
TGI (MCF7 breast): > 100 µM
TGI (HOP-18 NSCLC): > 100 µM
TGI (DLD-1 colon): > 100 µM
TGI (KM12 colon): > 100 µM
TGI (HOP-62 NSCLC): 90.2 µM
TGI (A549 NSCLC): > 100 µM
